# Measured values reported in patent US20080300303A1, “Substances and Pharmaceutical Compositions for the Inhibition of Glyoxalases and Their Use As Anti-Fungal Agents” (priority 2005, published 2008).
# Where a name gives a salt, the structure may show the parent alone.
# Assays:
# [1] = system: primary human skin fibroblasts; experiment: Vitality of primary human fibroblasts (dye exclusion count); type: cell-based; conditions: 1-50 mM, 24 hours, serum free medium, FIG. 7
# Procedure: An identical number (10^4 cells per well) of primary human skin fibroblasts were inoculated in 24-well plates (Greiner, no. 662160) and were cultured in DMEM (Gibco; no. 41966-092) in the presence of 10% calf serum (Biochrom, S0113/5), 2 mM L-glutamine (Gibco; no. 25030-024), penicillin/streptomycin (100 units penicillin/ml; 100 μg streptomycin/ml, Gibco; no. 15140/122), 5 mg % ascorbic acid (Serva, no. 14030.02) at 37° C., 5% CO2 and 95% humidity. The primary human fibroblasts were prepared according to the instructions of Birkenmeier et al. (1998). After reaching 50% confluency the medium was by fresh serum free medium. Thereafter the following supplements were added to the cells: preparation 1 (equivalent volume of serum free (SF) medium, blank); preparation 2 (1 mM DEL or 1 mM LEL or 1 mM EP); preparation 3 (5 mM DEL or 5 mM LEL or 5 mM EP), preparation 4 (10 mM DEL or 10 mM LEL or 10 mM EP), preparation 5 (20 mM DEL or 20 mM LEL or 20 mM EP), preparation 6 (50 mM DEL or 50 mM LEL or 50 mM EP). The culture was continued at 37° C., 5% CO2 and 95% humidity for 24 hours. Thereafter the supernatants were removed and 100 μl of a 50% […] solution was added to the wells. After washing the cells with medium the unstained and stained cells were counted under the light optical microscope comprising a coordinate plane. Cells stained blue were assessed as avital, unstained cells as vital. The percentage of unstained cells of the total number of cells corresponds to the vitality of the cells.
# [2] = molecular target: T1, yeast glyoxalase I (Saccharomyces cerevisiae, UniProt P50107); experiment: Enzymatic activity of yeast glyoxalase I; type: biochemical; conditions: for Inhibition of the reaction of yeast glyoxalase I: increasing concentrations (FIG. 1-3; 0-30 mM in FIG. 3)
# T1 construct: purchased Sigma G-4252
# T1 sequence (P50107 1-326): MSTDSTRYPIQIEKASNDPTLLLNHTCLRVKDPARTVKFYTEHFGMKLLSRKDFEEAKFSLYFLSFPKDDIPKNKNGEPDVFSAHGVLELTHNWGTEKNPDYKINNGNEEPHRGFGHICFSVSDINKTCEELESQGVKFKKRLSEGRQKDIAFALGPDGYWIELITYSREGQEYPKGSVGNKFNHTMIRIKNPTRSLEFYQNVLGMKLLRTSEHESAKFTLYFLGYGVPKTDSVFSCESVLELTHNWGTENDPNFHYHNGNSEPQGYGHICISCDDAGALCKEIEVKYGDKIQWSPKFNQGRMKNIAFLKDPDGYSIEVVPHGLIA
# Procedure: Measuring glyoxalase I (E.C.4.4.1.5, lactoyl-glutathione lyase Sigma, G-4252) was performed according to the instructions of McLellan and Thornalley (1989). The principle is based on measuring the initial rate of formation of S-D-lactoyl-glutathione from methylglyoxal (Sigma, M0252, 40%) and reduced L-glutathione (Aldrich, G-4251, >99%). The formation of the product is observed using the extinction coefficient e=2.86 mM−1 cm−1 at 240 nm. The measurement was performed in 50 mM sodium phosphate buffer, pH 7.0. For that purpose 2 mM methylglyoxal and 2 mM reduced glutathione were incubated for 2 minutes at 30° C. for the formation of the hemithioacetal. Thereafter 20 μl of a 1 to 1000 dilution of the glyoxalase I (Sigma, G-4252) was added to 1 ml of the measuring reagent to start the reaction.
# Glyoxalase activity (IU) corresponds to the amount of enzyme forming 1 μmol of S-D-lactoyl-glutathione/min.
# Determination of glyoxalase I activity was performed according to the general protocol as described above. The influence of ethyl pyruvate on enzyme activity was investigated by addition of increasing concentrations of EP (Sigma; no. E4,780-8; lot. S18972-513) to the measuring reagent.
# Determination of glyoxalase I activity was performed according to the general protocol as described above. The influence of compounds of the general formula (I), (II), and (III) on the activity of the enzyme was investigated by addition of increasing concentrations of these compounds to the preparation. The IC50-values were calculated from inhibition curves of each compound.
# Determination of glyoxalase I activity . . . was performed according to the general protocol as described above. The influence of 2-oxopropanethioic acid S-ethyl ester on the activity of the enzyme was investigated by addition of increasing concentrations of SE to the preparation for the measurement.
# Determination of glyoxalase I activity was performed according to the general protocol as described above. The influence of effectors on the enzymatic activity was investigated by addition of increasing concentrations (0-30 mM) of EP (Sigma; no. E4,780-8; lot. S18972-513) (triangle), BP (prepared according to the instructions of patent JP 11080089; 98%) (circle) and BL (Fluka, 69819; lot. 443090/1 21503090) (squares) to the measuring reagent (FIG. 3).
# [3] = system: fluconazole resistant Candida albicans strain A435 5; experiment: Growth of fluconazole resistant Candida albicans, O.D. at 600 nm; type: cell-based
# Procedure: A colony of the fluconazole resistant Candida albicans strain A435 5 was cultured in the same medium and under the same conditions as used for Saccharomyces HD65-5a.
# At an O.D. of 14.4 (600 nm) a starting density of O.D. 0.20 was set by dilution with culture medium.
# (§1) Samples of 1 ml were taken after 5 hours and the O.D. at 600 nm was determined as a standard for the cell number. The resistance against fluconazole was determined according to the guidelines of NCCLS (1997). Resistance is defined as growth at a dosage of a ≧64 μg/ml of fluconazole.
# [4] = system: fluconazole sensitive Candida albicans strain R/HO13; experiment: Growth of fluconazole sensitive Candida albicans, O.D. at 600 nm; type: cell-based
# [5] = system: Saccharomyces cerevisiae HD65-5a; experiment: Growth of yeast cells, O.D. at 600 nm; conditions: increasing concentrations, (FIG. 8, Table 5)
# [6] = system: yeast glyoxalase II; experiment: Enzymatic activity of yeast glyoxalase II (cell free extract); type: biochemical, Saccharomyces cerevisiae; conditions: 0-20 mM, FIG. 4
# Procedure: Protein concentration of the cell free extract was determined according to the Bradford method (Bradford, 1976).
# The activity of the glyoxalase II (Hydroxyacyl glutathione hydrolase, E.C. 3.1.2.6.) was determined according to the instructions of Martins et al. (1999) in 0.1 M MES buffer, pH 6.5, 1.5 mM S-D-lactoyl-glutathione (L7140, Sigma-Aldrich Chemistry GmbH) and 0.75 mM DTNB (Sigma, D8130). After addition of suitable amounts of cell extract and an incubation period of 15 min at 25° C. the formation of glutathione was measured at 412 nm (ε=13.6 mM^−1 cm^−1). The activity of the glyoxalase II (IU) correlates with the amount of enzyme hydrolysing 1 μmol of S-D-lactoyl-glutathion/min.
# The influence of ethyl pyruvate on the activity of the enzyme was investigated by adding increasing concentrations of EP (Sigma, No. E4,780-8; Lot. S18972-513) (0-20 mM) to the measurement reagent.
# [7] = molecular target: T2, glyoxalase I of human erythrocytes (Homo sapiens, UniProt Q04760); experiment: Enzymatic activity of human erythrocyte glyoxalase I; type: biochemical; conditions: 0-50 mM, FIG. 5
# T2 construct: from tissue; host or cells: human erythrocyte lysate
# T2 sequence (Q04760 2-184 limits assumed): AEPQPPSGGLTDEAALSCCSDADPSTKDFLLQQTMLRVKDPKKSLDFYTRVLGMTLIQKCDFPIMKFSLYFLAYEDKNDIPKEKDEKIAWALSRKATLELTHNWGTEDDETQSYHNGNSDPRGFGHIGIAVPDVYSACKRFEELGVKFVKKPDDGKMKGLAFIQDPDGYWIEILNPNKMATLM
# Procedure: The determination of glyoxalase I was performed as described above for the yeast enzyme. After the formation of the hemithioacetal, suitable amounts (5 to 100 μl) of an erythrocyte lysate were added to 1 ml of the measuring reagent to start the reaction. The erythrocyte lysate was prepared according to the instructions of Mannervik et al. (1982).
# Glyoxalase activity (IU) corresponds to the amount of enzyme forming […] of S-D-lactoyl-glutathione/min.
# Determination of glyoxalase I activity was performed according to the general protocol as described above. The influence of ethyl pyruvate on enzyme activity was investigated by addition of increasing concentrations of EP (Sigma; no. E4,780-8; lot. S18972-513) (0-50 mM) to the measuring reagent.
# [8] = molecular target: T3, glyoxalase II of human erythrocytes (Homo sapiens, UniProt Q16775); experiment: Enzymatic activity of human erythrocyte glyoxalase II; type: biochemical; conditions: 0-20 mM, FIG. 6
# T3 construct: from tissue; host or cells: human erythrocyte hemolysate
# Procedure: The determination of erythrocyte glyoxalase II (E.C.3.1.2.6., hydroxyacyl glutathione hydrolase) was performed according to the instructions of McLellan and Thornalley (1989). The principle is based on determining the initial hydrolysis of S-D-lactoyl-glutathione (L 7140, Sigma—Aldrich Chemie GmbH) in the presence of low amounts of a cell extract. Hydrolysis is observed on the basis of the reduction of the extinction at 240 nm (e=−3.1 mM−1 cm−1). Glyoxalase II activity (IU) correlates to the amount of enzyme hydrolysing 1 μmol of S-D-lactoyl-glutathione/min. The measurement was performed in 100 mM Tris-HCl buffer, pH 7.4. For this purpose 0.4 mM S-D-lactoyl-glutathione was added to 1 ml of the measuring reagent and the reaction was started by addition of suitable amounts (5-100 μl) of an erythrocyte hemolysate. The erythrocyte lysate was prepared according to the instructions of Mannervik et al. (1982).
# Determination of glyoxalase II activity was performed according to the general protocol as described above. The influence of ethyl pyruvate on the activity of the enzyme was investigated by addition of increasing concentrations of EP (Sigma, no. E 4,780-8; lot. S18972-513) (0-20 mM) to the measuring reagent.
# [9] = system: Candida albicans, Candida krusei, Candida tropicalis, Candida glabrata, Candida parapsilosis; experiment: Agar dilution antimicrobial susceptibility test; type: cell-based, Candida spp.; conditions: 12.5 mM to 40 mM in agar, 37° C., 20 hours, FIG. 9
# Procedure: Control agar plates were prepared without EP.
# [10] = system: Candida albicans; experiment: Mouth lavage in a patient suffering from candidiasis; type: in vivo; conditions: lavage 10 ml 75 mM ethyl pyruvate, 1% glucose in saline, 3 times daily over 4 days
# Procedure: A patient with a diagnosis of diabetes mellitus (presenting with a fasting blood sugar level of 6.88 mM) complained about dryness in the mouth, chapped lips and white blotchy alterations of the oral mucosa.
# [11] = system: Candida albicans; experiment: Fluconazole susceptibility according to NCCLS guidelines; type: cell-based
# Procedure: as §1
# The strain was sensitive against fluconazole at a dosage of ≦0.13 μg/ml.
Inhibition of the reaction of yeast glyoxalase I [2],Structure (SMILES),Toxicity / vitality of primary human fibroblasts [1],IC50 [2] [mM],Inhibition of growth of fluconazole resistant Candida albicans cells [3],further results
–,CCOC(=O)[C@@H](C)O [(+)-Ethyl D-Lactate],not toxic,–,–,–
inhibits,"CCSC(=O)C(C)=O [SE, 2-Oxopropanethioic acid S-ethyl ester]",–,–,–,–
–,"CCOC(=O)C(=O)OCC [Diethyl oxalate, reference compound]",–,> 50,–,–
–,CCOC(=O)[C@H](C)O [(−)-Ethyl L-Lactate],not toxic,–,–,Inhibition of growth of yeast cells [5]: did not influence growth
–,CCOC(=O)C(C)=O [Ethyl pyruvate],not toxic,10,inhibit,Inhibition of the reaction of yeast glyoxalase I ([2]; listed as EP): inhibit; Inhibition of the reaction of yeast glyoxalase II [6]: inhibits; Inhibition of the reaction of glyoxalase I of human erythrocytes [7]: inhibits; Inhibition of the reaction of glyoxalase II of human erythrocytes [8]: inhibits; Inhibition of growth of fluconazole sensitive Candida albicans cells [4]: inhibit; Inhibition of growth and proliferation of different fungi (1-7) [9]: effectively inhibits; Reduction of germ number in lavage of the oral cavity [10]: < 5%; Inhibition of growth of yeast cells ([5]; listed as EP): inhibit
does not influence,CCCCOC(=O)[C@H](C)O [(−)-Butyl L-Lactate],–,–,–,–
–,CCOC(=O)C(=O)CC [Ethyl 2-oxobutyrate],–,1.8,inhibit,–
–,COC(=O)C(C)=O [Methyl pyruvate],–,15,–,–
–,OC(Cn1cncn1)(Cn1cncn1)c1ccc(F)cc1F [fluconazole],–,–,–,"Fluconazole dosage at which growth defines resistance ([11]; strain A435 5, NCCLS (1997)): ≥ 64 µg/mL; Fluconazole dosage at which the strain was sensitive ([11]; strain R/HO13): ≤ 0.13 µg/mL"

Structure (SMILES),Inhibition of the reaction of yeast glyoxalase I [2],Toxicity / vitality of primary human fibroblasts [1],IC50 [2] [mM],Inhibition of growth of fluconazole resistant Candida albicans cells [3],further results
CCCCOC(=O)C(C)=O [Butyl pyruvate],inhibit,–,7.5,inhibit,Inhibition of growth of fluconazole sensitive Candida albicans cells [4]: inhibit; Inhibition of growth of yeast cells [5]: inhibit
